Results as given in patent US20110091485A1, “MODULATION OF CELL JUNCTIONS” (priority 2007, published 2011).
Where a SMILES comes first, the peptide text is derived from it. [ ]: non-standard residue; d: D form. Nle = CCCC[C@H](N)C(=O)O

Assays:
[1] = target: T1, Gp140 (Homo sapiens, UniProt Q9H5V8); assay: Phosphorylation of Gp140, SFK and PKCδ in keratinocytes (immunoblotting); type: cell-based; details: 5 min
T1 construct: endogenous in cells; host or cells: human keratinocytes (HKs)

[2] = target: T1, Gp140; assay: α-catenin localization in cell-cell contacts of keratinocytes grown in low Ca+2; type: cell-based; details: 30 μM Ca+2, suramin 35 μM, 3 hrs
Experimental: FIG. 25. Signals through Gp140/CDCP1 promote α-catenin in cell-cell contacts. Human keratinocytes were grown in low Ca^+2 (30 μM) in order to disassemble adherens junctions that contain cadherins and α-catenin. The keratinocytes were treated without (−Left panel) or with (+Right Panel) Gp140 siRNA to knockdown expression of Gp140. […] Arrows indicate minor subpopulation of cells where Gp140 was not knocked down surrounded by the majority of Gp140 was knocked down.
Signals through Gp140/CDCP1 promote α-catenin in cell-cell contacts. Human keratinocytes were grown in low Ca^+2 (30 μM) in order to disassemble adherens junctions that contain cadherins and α-catenin. The keratinocytes were treated without or with Gp140 siRNA to knockdown expression of Gp140. […] Arrows indicate minor subpopulation of cells where Gp140 was not knocked down surrounded by the majority of Gp140 was knocked down.

[3] = target: T1, Gp140; type: cell-based; details: keratinocytes, P1C3 15 min, suramin 35 μM
Experimental: Zymosan or ActGp140 mAb were added to keratinocytes and incubated (30 min), washed, fixed (2% formaldehyde in cacodylate, 10 min) and permeabilized (0.5% Triton-X100, 5 min).
Human keratinocytes were grown in 30 μM Ca^+2 then treated with zymosan (20 μg/10^6 cells) for 30 min or 2 h, extracted with Triton X-100 (0.5% for 5 min) and fixed and stained with Abs against ZO-1 and afadin (AF-6).
Keratinocytes were treated (2 h) with ActGp140 mAb, washed, extracted with Triton X-100 detergent (0.5%, 5 min, 4° C.), fixed and stained with Abs against the indicated proteins.
Keratinocytes (grown in 30 μM Ca^+2) were untreated or treated with ActGp140 or NActGp140 mAbs for 1.5 hrs, washed, extracted with Triton X-100 (0.5% at 4° C. for 5 min) then stained.
(b-c) anti-Gp140 mAb (P1C3). (d) Same field as c stained with Abs against Gp140pY734.

[4] = target: T2, Gp140 (Mus musculus, UniProt Q5U462); details: cited from earlier work
T2 construct: from tissue; host or cells: mouse epidermis

[5] = system: GJC; details: cited from earlier work
[6] = system: Cx43; assay: Cx43 levels and Y247 phosphorylation in LA25 cells treated with ALLN (immunoblot); type: cell-based; details: LA25 cells at 35° C. (src active), ALLN 3 h
Experimental: FIG. 16. (A) Src activity leads to reduced levels of Cx43 in gap junctions unless rescued by ALLN treatment. LA25 cells grown at 40° C. or 35° C. (permissive) were untreated or treated with ALLN for 3 h and total Cx43 levels were determined by immunoblot. […] Cells grown at 35° C. were treated with ALLN for 3 h or untreated and pY247 and pY265 levels relative to total Cx43 were determined. In both A & B total cell lysates were harvested, blotted and probed (n=4 separate expts).

[7] = system: SFKs; assay: SFK inhibition with PP2 in keratinocytes (Cx43 immunofluorescence, scratch wound); type: cell-based
Experimental: FIG. 13. […] Keratinocytes were pretreated with PP2 (5 μM, 2 h), scratch wounded and after 12 h were fixed in cold methoano/acetone and processed for immunofluorescence for total Cx43 (green). Cell nuclei were stained with DAPI (blue) and the scratched area is shown by an arrow.

T1 sequence (Q9H5V8 30-836): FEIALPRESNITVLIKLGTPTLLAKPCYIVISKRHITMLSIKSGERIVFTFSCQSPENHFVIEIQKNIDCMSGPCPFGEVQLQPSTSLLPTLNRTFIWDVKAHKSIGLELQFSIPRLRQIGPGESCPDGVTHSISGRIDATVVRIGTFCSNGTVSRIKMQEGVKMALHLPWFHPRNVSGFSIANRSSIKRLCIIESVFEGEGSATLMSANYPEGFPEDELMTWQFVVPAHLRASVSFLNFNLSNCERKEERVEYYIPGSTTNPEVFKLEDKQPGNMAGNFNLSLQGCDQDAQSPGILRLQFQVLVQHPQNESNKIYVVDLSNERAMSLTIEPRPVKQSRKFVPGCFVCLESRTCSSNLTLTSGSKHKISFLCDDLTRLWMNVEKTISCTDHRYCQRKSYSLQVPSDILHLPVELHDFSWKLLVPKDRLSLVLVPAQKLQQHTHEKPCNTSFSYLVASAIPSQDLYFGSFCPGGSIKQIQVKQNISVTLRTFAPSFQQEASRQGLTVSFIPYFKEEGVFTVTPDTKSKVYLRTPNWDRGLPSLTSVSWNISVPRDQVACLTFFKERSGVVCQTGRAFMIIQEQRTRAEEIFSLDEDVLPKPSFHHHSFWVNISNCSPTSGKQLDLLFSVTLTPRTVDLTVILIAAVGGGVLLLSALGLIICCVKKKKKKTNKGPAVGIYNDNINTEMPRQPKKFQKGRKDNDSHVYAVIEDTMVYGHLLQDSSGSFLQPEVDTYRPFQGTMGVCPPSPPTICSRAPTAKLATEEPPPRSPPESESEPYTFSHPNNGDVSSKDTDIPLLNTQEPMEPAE
T2 sequence (Q5U462 30-833): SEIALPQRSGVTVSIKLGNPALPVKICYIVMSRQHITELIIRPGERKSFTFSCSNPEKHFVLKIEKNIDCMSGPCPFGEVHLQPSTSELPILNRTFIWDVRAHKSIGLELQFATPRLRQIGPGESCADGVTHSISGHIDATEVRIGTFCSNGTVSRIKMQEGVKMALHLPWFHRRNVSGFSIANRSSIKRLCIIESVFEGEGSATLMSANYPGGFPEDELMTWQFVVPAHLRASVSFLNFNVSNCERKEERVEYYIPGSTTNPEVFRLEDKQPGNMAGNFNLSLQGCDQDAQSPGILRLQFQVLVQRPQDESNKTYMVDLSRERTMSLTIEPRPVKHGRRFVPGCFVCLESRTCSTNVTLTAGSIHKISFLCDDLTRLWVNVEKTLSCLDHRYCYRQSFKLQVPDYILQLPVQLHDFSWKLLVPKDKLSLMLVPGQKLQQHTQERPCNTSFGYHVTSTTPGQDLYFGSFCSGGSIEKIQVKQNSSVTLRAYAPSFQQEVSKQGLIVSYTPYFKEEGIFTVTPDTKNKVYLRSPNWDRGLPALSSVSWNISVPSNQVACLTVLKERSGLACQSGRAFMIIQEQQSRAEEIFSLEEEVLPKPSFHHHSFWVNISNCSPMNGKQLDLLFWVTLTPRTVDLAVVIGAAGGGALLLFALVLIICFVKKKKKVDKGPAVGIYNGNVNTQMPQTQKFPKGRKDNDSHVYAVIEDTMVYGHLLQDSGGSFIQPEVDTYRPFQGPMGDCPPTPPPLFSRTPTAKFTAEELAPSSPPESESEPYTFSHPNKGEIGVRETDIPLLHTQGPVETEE

## Cc1ccc(C(=O)Nc2ccc(S(=O)(=O)O)c3cc(S(=O)(=O)O)cc(S(=O)(=O)O)c23)cc1NC(=O)c1cccc(NC(=O)Nc2cccc(C(=O)Nc3cc(C(=O)Nc4ccc(S(=O)(=O)O)c5cc(S(=O)(=O)O)cc(S(=O)(=O)O)c45)ccc3C)c2)c1 [suramin]
[1]
  PKC activity determined by phosphorylation of VaspS157: increased
[1]; suramin 35 μM
  phosphorylation of Gp140Y734, SFKY416 and PKCdY311 by SFKs: increased phosphorylation
[2]
  α-catenin in cell-cell contacts: dramatic accumulation of α-catenin in cell-cell contacts
[3]
  phosphorylation and assembly of Gp140 in detergent-resistant membrane clusters in cell-cell contacts: increases phosphorylation and assembly of Gp140 in detergent-resistant Gp140 membrane clusters
[4]
  phosphorylation and cleavage of Gp140 in mouse epidermis: induces phosphorylation and proteolytic cleavage of Gp140 to p80

## CC1(C)[C@@H](OC(=O)CCC(=O)O)CC[C@]2(C)[C@H]3C(=O)C=C4[C@@H]5C[C@@](C)(C(=O)O)CC[C@]5(C)CC[C@@]4(C)[C@]3(C)CC[C@@H]12 [CBX, 18α-carbenoxalone]
[5]
  wound outgrowth: prevents wound outgrowth when applied before, but not after wounding

## CCCC[C@@H](C=O)NC(=O)[C@H](CC(C)C)NC(=O)[C@H](CC(C)C)NC(C)=O [ALLN] (Ac-Leu-Leu-[Nle]-aldehyde)
[6]
  Y247 phosphorylation relative to total Cx43: increases the levels of Y247 phosphorylation relative to total Cx43

## CC(C)(C)n1nc(-c2ccc(Cl)cc2)c2c(N)ncnc21 [PP2]
[7]; PP2 5 μM, 2 h pretreatment, scratch wound, 12 h
  gap junctional density at wound cell-cell interfaces (total Cx43): increases gap junctional density at wound cell-cell interfaces
[7]; keratinocytes
  cell surface Gp140, junctional Cx43 and dye transfer: dramatic increases in cell surface Gp140 and junctional Cx43 and dye transfer
